Reference: the NIST ThermoML archive (doi:10.1016/j.fluid.2009.06.008)

Assay: mn = molality of the nth substance listed, in mol/kg
Settings: 101 kPa, Liquid; for viscosity: Capillary tube (Ostwald / Ubbelohde) method; for mass density: Vibrating tube method

O=C[C@H](O)[C@@H](O)[C@H](O)[C@H](O)CO [D-glucose] + O
Settings | mass density [kg/m3] | viscosity [mPa·s]
278.15 K, m1 = 0.2 | 1019.65 | 1.694
278.15 K, m1 = 0.4 | 1031.6 | 1.873
278.15 K, m1 = 0.6 | 1043.55 | 2.074
278.15 K, m1 = 0.8 | 1055.51 | 2.3
278.15 K, m1 = 1 | 1067.46 | 2.536
278.15 K, m1 = 1.2 | 1079.41 | 2.802
283.15 K, m1 = 0.2 | 1017.74 | 1.451
283.15 K, m1 = 0.4 | 1029.58 | 1.599
283.15 K, m1 = 0.6 | 1041.42 | 1.766
283.15 K, m1 = 0.8 | 1053.25 | 1.953
283.15 K, m1 = 1 | 1065.09 | 2.147
283.15 K, m1 = 1.2 | 1076.93 | 2.374
288.15 K, m1 = 0.2 | 1015.54 | 1.258
288.15 K, m1 = 0.4 | 1027.28 | 1.383
288.15 K, m1 = 0.6 | 1039.02 | 1.524
288.15 K, m1 = 0.8 | 1050.75 | 1.682
288.15 K, m1 = 1 | 1062.49 | 1.849
288.15 K, m1 = 1.2 | 1074.22 | 2.029
293.15 K, m1 = 0.2 | 1013.09 | 1.104
293.15 K, m1 = 0.4 | 1024.74 | 1.21
293.15 K, m1 = 0.6 | 1036.38 | 1.329
293.15 K, m1 = 0.8 | 1048.03 | 1.46
293.15 K, m1 = 1 | 1059.67 | 1.619
293.15 K, m1 = 1.2 | 1071.32 | 1.754
298.15 K, m1 = 0.2 | 1010.39 | 0.9748
298.15 K, m1 = 0.4 | 1023.11 | 1.066
298.15 K, m1 = 0.6 | 1035.26 | 1.166
298.15 K, m1 = 0.8 | 1046.85 | 1.272
298.15 K, m1 = 1 | 1057.94 | 1.395
298.15 K, m1 = 1.2 | 1068.55 | 1.528
303.15 K, m1 = 0.2 | – | 0.8685
303.15 K, m1 = 0.4 | 1018.93 | 0.9469
303.15 K, m1 = 0.6 | 1030.42 | 1.035
303.15 K, m1 = 0.8 | 1041.92 | 1.132
303.15 K, m1 = 1 | 1053.41 | 1.236
303.15 K, m1 = 1.2 | 1064.9 | 1.343
308.15 K, m1 = 0.2 | 1004.38 | 0.7811
308.15 K, m1 = 0.4 | 1015.81 | 0.8496
308.15 K, m1 = 0.6 | 1027.24 | 0.9264
308.15 K, m1 = 0.8 | 1038.67 | 1.01
308.15 K, m1 = 1 | 1050.1 | 1.096
308.15 K, m1 = 1.2 | 1061.53 | 1.194
